What was measured:
[1] = system: RKO human colon carcinoma cell line; assay: WST-1 cell viability assay, RKO; type: cell-based; conditions: WST-1, 24 h treatment, mean ± S.D of three independent experiments
From the text: (§1) The synthesized compounds were screened for their cytotoxicity on five cancer cell lines, namely SK-OV-3, MCF-7, MDA-MB-231, HCT-116 and RKO, using a WST colorimetric assay. The assay principle is based upon the reduction of the tetrazolium salt WST-1 to formazan by cellular mitochondrial dehydrogenases present in viable cells. […] Among the latter compounds the benzohydrazide derivative 9a emerged with the lowest IC50 in this study against MCF-7 cells compared to 5-FU. […] Based on the fact that 9a had less cytotoxic effects on normal breast epithelial cells it was subjected to further studies.
(§2) The following cell lines were used for the screening stage, obtained from the American Type Culture Collection (ATCC, Manassas, VA, USA); SK-OV-3 (HTB-77), MCF-12A (ATCC CRL-10782), MDA-MB-231 (ATCC HTB-26), HCT-116 (CCL-247), RKO (CRL-2577) and sub-culturing of the above cell lines was conducted in 75 cm^2 flasks. The old culture media was removed and discarded after assessing the confluency of the cells and the cells were rinsed with 2–3 mL diluted trypsin (1×) (trypsin/EDTA solution consists of 0.025% trypsin and 0.01% EDTA in PBS), for about 5 minutes for complete detachment. The cells were observed under the inverted microscope until the cell layer is completely dispersed. 75 cm^2 flasks were prepared and 16 mL of DMEM media for SK-OV-3, MCF-7, MDA-MB-231, (DMEM 4500 mg glucose) and RPMI media for HCT-116 were added to each flask. The cells were aspirated gently and added to the flasks. DMEM 4500 mg/L high glucose with 10% FBS, 5% streptomycin and penicillin, RPMI 1640 (prepared by adding 5% heat-inactivated FCS and 2 mm glutamine) were used. DMEM was also used for MCF-12A cells with the addition of human epidermal growth factor 20 ng/mL, insulin 0.01 mg/mL and hydrocortisone 500 ng/mL.
(§3) The synthesized compounds were screened for their anti-proliferative activity using 5-FU (F6627-1G, Sigma-Aldrich, St. Louis, MO, USA) as reference compound. A concentration of 0.4% DMSO was used in all experiment after ensuring 100% viability of the cell lines with this concentration. A 25 mM stock concentration of all compounds was prepared for further studies and analysis.
(§4) Cells were trypsinized and placed in a 15 mL Falcon tube, the cells were centrifuged for 3 min at 1000 rpm. Trypsin is decanted using a sterile pipette and then the pellet is loosened by flicking the tube few times then 5–10 mL warm DMEM or RPMI were added to the Falcon tube and the pellet is resuspended. Cell count was done next by taking 10 μL of the suspension into the cell counting slide and read under 10× cells/mL. A cell stock of 50,000 cells/mL was prepared for the 96 wells. Cells (100 μL) were added to each well using a sterile pipette each time to ensure consistency. The experiment was planned ahead of time using excel sheet, 3–6 wells were reserved as blank media while 3–6 wells for vehicle (DMSO). The plate was incubated for 24 h for compound treatment step. DMEM media was used to prepare different dilutions of the compounds. The old DMEM media was removed from the wells using sterile pipette in the hood and the media was replaced with 100 μL media with each compound. The plate was incubated for 24 h. After 24 h incubation, WST-1 reagent (Sigma) was added to each well and then the plate was incubated for 1 h before measuring the absorbance using VICTOR™ Multilabel Plate Reader (Perkin Elmer, Beaconsfield, UK). The absorbance of the colored solution can be quantified by measuring at a certain wavelength (usually between 500–600 nm), in this experiment the first reading was conducted at 540 nm and the second reading at 690 nm for the reference wavelength. The percentage of cell viability was determined as the ratio of the absorbance of the sample vs the control. Three independent experiments were performed. […] 5-Florouracil (Sigma-Aldrich, F6627-1G) was used as reference standard.

[2] = system: MCF-7 human breast adenocarcinoma cell line; assay: WST-1 cell viability assay, MCF-7; type: cell-based; conditions: WST-1, 24 h treatment, mean ± S.D of three independent experiments
From the text: as §1, §2, §3, §4

[3] = system: SK-OV-3 human ovarian carcinoma cell line; assay: WST-1 cell viability assay, SK-OV-3; type: cell-based; conditions: WST-1, 24 h treatment, mean ± S.D of three independent experiments
From the text: as §1, §2, §3, §4

[4] = system: MDA-MB-231 human breast adenocarcinoma cell line; assay: WST-1 cell viability assay, MDA-MB-231; type: cell-based; conditions: WST-1, 24 h treatment, mean ± S.D of three independent experiments
From the text: as §1, §2, §3, §4

[5] = system: HCT-116 human colon carcinoma cell line; assay: WST-1 cell viability assay, HCT-116; type: cell-based; conditions: WST-1, 24 h treatment, mean ± S.D of three independent experiments
From the text: as §1, §2, §3, §4

[6] = Homo sapiens, Colon carcinoma cell

| IC50 [1, 6] [µM] | IC50 ([2]; Homo sapiens, MCF7, 24 h) [µM] | IC50 ([3]; Homo sapiens, SK-OV-3) [µM] | IC50 ([4]; Homo sapiens, MDA-MB-231) [µM] | IC50 ([5]; Homo sapiens, HCT-116) [µM] | melting point [°C] | IC50 [1] [µM] | IC50 [2] [µM] | IC50 [3] [µM] | IC50 [4] [µM] | IC50 [5] [µM] | Compound |
| --- | --- | --- | --- | --- | --- | --- | --- | --- | --- | --- | --- |
| 11.2 ± 0.91 | 11.2 ± 0.22 | 9.01 ± 0.42 | 30.1 ± 0.88 | 23.2 ± 0.95 | 151 to 153 | – | – | – | – | – | COc1ccc(-c2cc(-c3ccc(OC)c(OC)c3)c(C#N)c(OCC(=O)NNC(=S)SC)n2)cc1OC [Compound 7a, Methyl 2-[2-(3-cyano-4,6-bis(3,4-dimethoxyphenyl)pyridin-2-yloxy)acetyl]hydrazinecarbodithioate] |
| 15.2 ± 1.13 | 18.1 ± 1.76 | 12.3 ± 0.88 | 37.9 ± 1.25 | 9.1 ± 0.97 | 144 to 146 | – | – | – | – | – | CCSC(=S)NNC(=O)COc1nc(-c2ccc(OC)c(OC)c2)cc(-c2ccc(OC)c(OC)c2)c1C#N [Compound 7b, Ethyl 2-[2-(3-cyano-4,6-bis(3,4-dimethoxyphenyl)pyridin-2-yloxy)acetyl]hydrazinecarbodithioate] |
| 20.3 ± 0.76 | 7.1 ± 0.44 | 5.12 ± 0.11 | 31.7 ± 0.89 | 26.9 ± 0.97 | 158 to 160 | – | – | – | – | – | COc1ccc(-c2cc(-c3ccc(OC)c(OC)c3)c(C#N)c(OCC(=O)NNC(=S)SCCN3CCOCC3)n2)cc1OC [Compound 7c, 2-Morpholinoethyl-2-[2-(3-cyano-4,6-bis(3,4-dimethoxyphenyl)pyridin-2-yloxy)acetyl]hydrazinecarbo-dithioate] |
| 25 ± 1.33 | 14.3 ± 0.95 | 10.1 ± 0.98 | 35.5 ± 1.03 | 11.2 ± 1.26 | 160 to 162 | – | – | – | – | – | COc1ccc(-c2cc(-c3ccc(OC)c(OC)c3)c(C#N)c(OCC(=O)NNC(=S)SCCN3CCCCC3)n2)cc1OC [Compound 7d, 2-(Piperidin-1-yl)-ethyl-2-[2-(3-cyano-4,6-bis(3,4-dimethoxyphenyl)pyridin-2-yloxy)acetyl]hydrazinecarbo-dithioate] |
| 12.32 ± 0.02 | 12 ± 0.96 | 14.1 ± 0.95 | 25.3 ± 1.24 | 28.8 ± 0.31 | 163 to 164 | – | – | – | – | – | COc1ccc(C=NNC(=O)COc2nc(-c3ccc(OC)c(OC)c3)cc(-c3ccc(OC)c(OC)c3)c2C#N)cc1 [Compound 8a, 2-[3-Cyano-4,6-bis(3,4-dimethoxyphenyl)pyridin-2-yl]oxy-N'-(4-methoxybenzylidene)acetohydrazide] |
| 14.2 ± 0.91 | 9.31 ± 0.98 | 10.2 ± 0.92 | 32.3 ± 0.87 | 25.2 ± 0.89 | 190 to 192 | – | – | – | – | – | COc1ccc(C=NNC(=O)COc2nc(-c3ccc(OC)c(OC)c3)cc(-c3ccc(OC)c(OC)c3)c2C#N)cc1OC [Compound 8b, 2-[3-Cyano-4,6-bis(3,4-dimethoxyphenyl)pyridin-2-yl]oxy-N'-(3,4-dimethoxybenzylidene)acetohydrazide] |
| 16.3 ± 0.37 | 15.3 ± 0.74 | 12.1 ± 0.98 | 20.3 ± 1.06 | 25.9 ± 0.83 | 232 to 234 | – | – | – | – | – | COc1ccc(-c2cc(-c3ccc(OC)c(OC)c3)c(C#N)c(OCC(=O)NN=Cc3cc(OC)c(OC)c(OC)c3)n2)cc1OC [Compound 8c, 2-[3-Cyano-4,6-bis(3,4-dimethoxyphenyl)pyridin-2-yl]oxy-N'-(3,4,5-trimethoxybenzylidene)acetohydrazide] |
| 9.95 ± 1.06 | 10.2 ± 0.92 | 7.08 ± 0.16 | 19.3 ± 0.86 | 17.9 ± 0.74 | 170 to 172 | – | – | – | – | – | COc1ccc(C(=O)NNC(=O)COc2nc(-c3ccc(OC)c(OC)c3)cc(-c3ccc(OC)c(OC)c3)c2C#N)cc1 [Compound 9b, N'-[2-(3-cyano-4,6-bis(3,4-dimethoxyphenyl)pyridin-2-yloxy)acetyl]-4-methoxybenzo hydrazide] |
| 12.1 ± 1.26 | 13.4 ± 0.98 | 11.34 ± 0.02 | 26.8 ± 0.33 | 21.8 ± 0.85 | 120 to 122 | – | – | – | – | – | COc1ccc(-c2cc(-c3ccc(OC)c(OC)c3)c(C#N)c(OCC(=O)NNS(=O)(=O)c3ccccc3)n2)cc1OC [Compound 10a, N'-[2-(3-cyano-4,6-bis(3,4-dimethoxyphenyl)pyridin-2-yloxy)acety]benzenesulfohydrazide] |
| 15.7 ± 0.86 | 8.12 ± 0.47 | 9.17 ± 0.38 | 22.4 ± 1.71 | 16.1 ± 1.07 | 190 to 192 | – | – | – | – | – | COc1ccc(S(=O)(=O)NNC(=O)COc2nc(-c3ccc(OC)c(OC)c3)cc(-c3ccc(OC)c(OC)c3)c2C#N)cc1 [Compound 10b, N'-[2-(3-cyano-4,6-bis(3,4-dimethoxyphenyl)pyridin-2-yloxy)acetyl]-4-methoxybenzenesulfohydrazide] |

Second part, the molecule before the results:

| Compound | IC50 [1, 6] [µM] | IC50 ([2]; Homo sapiens, MCF7, 24 h) [µM] | IC50 ([3]; Homo sapiens, SK-OV-3) [µM] | IC50 ([4]; Homo sapiens, MDA-MB-231) [µM] | IC50 ([5]; Homo sapiens, HCT-116) [µM] | melting point [°C] | IC50 [1] [µM] | IC50 [2] [µM] | IC50 [3] [µM] | IC50 [4] [µM] | IC50 [5] [µM] |
| --- | --- | --- | --- | --- | --- | --- | --- | --- | --- | --- | --- |
| COc1ccc(-c2cc(-c3ccc(OC)c(OC)c3)c(C#N)c(OC)n2)cc1OC [Compound 4a, 2-Methoxy-4,6-bis(3,4-dimethoxyphenyl)pyridine-3-carbonitrile] | 13.2 ± 0.77 | 9.08 ± 0.37 | 11.4 ± 0.72 | 32.1 ± 0.84 | 20.3 ± 0.85 | – | – | – | – | – | – |
| CCOc1nc(-c2ccc(OC)c(OC)c2)cc(-c2ccc(OC)c(OC)c2)c1C#N [Compound 4b, 2-Ethoxy-4,6-bis(3,4-dimethoxyphenyl)pyridine-3-carbonitrile] | 19.8 ± 0.37 | 15.5 ± 0.46 | 18.2 ± 0.98 | 40 ± 1.36 | 26.2 ± 1.22 | – | – | – | – | – | – |
| CCCOc1nc(-c2ccc(OC)c(OC)c2)cc(-c2ccc(OC)c(OC)c2)c1C#N [Compound 4c, 4,6-bis(3,4-Dimethoxyphenyl)-2-propoxypyridine-3-carbonitrile] | 18.1 ± 1.03 | 12.3 ± 0.77 | 22.1 ± 1.32 | 44.9 ± 1.74 | 10.1 ± 0.76 | – | – | – | – | – | – |
| COc1ccc(-c2cc(-c3ccc(OC)c(OC)c3)c(C#N)c(OCC(C)=O)n2)cc1OC [Compound 4d, 4,6-bis(3,4-Dimethoxyphenyl)-2-(2-oxopropoxy)pyridine-3-carbonitrile] | 17.4 ± 0.44 | 20.3 ± 0.98 | 25.2 ± 0.76 | 35.8 ± 0.96 | 13.1 ± 0.84 | 110 to 112 | – | – | – | – | – |
| CCOC(=O)COc1nc(-c2ccc(OC)c(OC)c2)cc(-c2ccc(OC)c(OC)c2)c1C#N [Compound 5, Ethyl 2-(3-Cyano-4,6-bis(3,4-dimethoxyphenyl)pyridin-2-yloxy)acetate] | 22.1 ± 0.97 | 15.4 ± 0.94 | 10.2 ± 0.44 | 25.1 ± 0.87 | 14.9 ± 0.98 | – | – | – | – | – | – |
| O=c1[nH]cc(F)c(=O)[nH]1 [Compound 5-FU, 5-Florouracil, reference compound] | – | – | – | – | – | – | 20.2 ± 1.16 | 7.06 ± 0.91 | 32.2 ± 1.03 | 15.1 ± 0.94 | 12.2 ± 1.1 |
| COc1ccc(-c2cc(-c3ccc(OC)c(OC)c3)c(C#N)c(OCc3nnc(S)o3)n2)cc1OC [Compound 14, 2-((5-Mercapto-1,3,4-oxadiazol-2-yl)methoxy)-4,6-bis(3,4-dimethoxyphenyl)pyridine-3-carbonitrile] | > 50 | > 50 | 30.3 ± 1.12 | > 50 | > 50 | – | – | – | – | – | – |
